In assay [1] the test system is Mycobacterium tuberculosis. The experiment in a line: Growth inhibition of Mycobacterium tuberculosis H37Rv at 0.05 ug/mL after 21 days. Type of assay: functional, organism-based.
Assay [2] deals with T1, Arylamine N-acetyltransferase (Mycolicibacterium smegmatis, UniProt O86309).
T1 sequence (O86309 whole entry): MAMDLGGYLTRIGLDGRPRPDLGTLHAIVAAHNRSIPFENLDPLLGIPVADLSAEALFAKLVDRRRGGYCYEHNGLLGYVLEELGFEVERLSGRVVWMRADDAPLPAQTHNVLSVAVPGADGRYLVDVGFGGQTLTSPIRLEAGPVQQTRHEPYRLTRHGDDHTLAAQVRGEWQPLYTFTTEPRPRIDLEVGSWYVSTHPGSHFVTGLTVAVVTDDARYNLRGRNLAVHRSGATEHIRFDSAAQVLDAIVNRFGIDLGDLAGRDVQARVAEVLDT
The experiment in a line: Inhibition of Mycobacterium smegmatis recombinant NAT expressed in Escherichia coli BL21 at 0.5 mg/mL.

Activity calls are given as the source filed them. The calls are words filed in the database; no cut-off is given here.

In the case of `NNC(=O)c1ccncc1`, in assay [1], the outcome was Active.

For `CC(=O)O[C@@H]1C=C2C(=O)O[C@@H](O)[C@]2(O)[C@@]2(C)CCCC(C)(C)[C@H]12`, in assay [2], the inhibition at 500 µg/mL was 35%.

Broadly, the inhibition is the drop in the measured response relative to a control, in per cent.

(Values after ChEMBL document CHEMBL1139202, “Inhibition of mycobacterial arylamine N-acetyltransferase contributes to anti-mycobacterial activity of Warburgia salutaris” (Bioorg Med Chem, 2007).)
